Laboratory results published in US20030003488A1, “Regulation of human mitochondrial deformylase” (priority 1999, published 2003).

test system: human mitochondrial deformylase; assay: Expression of mitochondrial deformylase by Western blotting in antisense-treated HCT 116 cells; type: cell-based; conditions: 10 micromolar once per day for seven days

Substance | expression of the mitochondrial deformylase as determined by Western blotting
5′-TCAACTGACTAGATGTACATGGAC-3′ (DNA TCAACTGACTAGATGTACATGGAC; chemistry not given here) [oligonucleotide (3), reference compound] | not observed
5′-AAAATGCAGGTAAGCATGTGAAAA-3′ [oligonucleotide (2)] | significantly reduced expression
5′-CAGCGATTTAAATACGGAACAAGG-3′ [oligonucleotide (1)] | significantly reduced expression
